Data as given in patent publication US20080207700A1, “Amino Acid Salts of Rosiglitazone” (priority 2005, published 2008).

Test: physchem
Experimental: The following buffer solutions were used:
Thereafter, the suspensions were treated in an ultrasonic bath for 1 minute, the pH was checked and, where necessary, readjusted to the value given respectively below. Then, the solutions were 0.45 μm filtrated.
The absorption of thus produced solutions was measured at 345 nm.

solubility at 1 min (pH 11.8, aqueous buffer, thermodynamic from solid) [mg/mL]	water solubility (pH 6) [mg/mL]	Structure (SMILES)
> 50		CN(CCOc1ccc(CC2SC(=O)NC2=O)cc1)c1ccccn1 (centres unmarked) [Base, 5-(4-/2-(N-methyl-N-(2-pyridyl)amino)ethoxy/benzyl)-2,4-thiazolidinedione]
	< 0.1	CN(CCOc1ccc(CC2SC(=O)NC2=O)cc1)c1ccccn1.O=C(O)/C=C\C(=O)O (centres unmarked) [Maleate, rosiglitazone maleate]
